The subject of series [1] is Toronto 2 SARS CoV-1. Kind of series: organism not typed. Type of series: cell-based. The settings on record: Vero C1008, 72 h, read-out: SARS-1 EC50 (μM) VeroE6.
In series [2] the test system is USA_WA1/2020 SARS CoV-2. In words: microbe, parasite or virus in culture. Type of series: cell-based. The settings on record: Severe acute respiratory syndrome coronavirus 2, Vero C1008, 72 h, read-out: SARS-2 EC50 (μM) VeroE6.
The test system of series [3] is SARS-2. Kind of series: microbe, parasite or virus in culture. Type of series: cell-based. The settings on record: Severe acute respiratory syndrome coronavirus 2, read-out: SARS-2 VU-EC50 (μM) (A549-hACE2).
The subject of series [4] is SARS-2.
Series [5] can be described thus: in vitro. The conditions noted are these: African green monkey.

This note sets out measurements from patent US11905306B2 (priority 2021, dated 2024).

As for `CC1(C)CN(c2ccc(NC(=O)c3cccc(C#Cc4ccccn4)c3)cc2)C1=O` [Compound 58, N-(4-(3,3-dimethyl-2-oxoazetidin-1-yl)phenyl)-3-(pyridin-2-ylethynyl)benzamide], the concentration giving a half-maximal response (EC50) amounted to 0.3 µM in series [1], 0.5 µM in series [2] and 0.38 µM in series [3]. Moreover, the “SARS-2 VU-VTR @ 20 μM (A549-hACE2) (logs)” value in series [4] came to 1.93 logs. This compound registered a CC50 in series [5] above 40000 nM.
With `O=C(Nc1ccc(N2CCCCC2=O)cc1)c1cccc(C#Cc2ccccn2)c1` [Compound 59, N-(4-(2-oxopiperidin-1-yl)phenyl)-3-(pyridin-2-ylethynyl)benzamide], the EC50 in series [1] is 1.05 µM; in series [2], 2 µM; in series [3] it was 0.66 µM. In addition, the “SARS-2 VU-VTR @ 20 μM (A549-hACE2) (logs)” value in series [4] came to 2.98 logs. The same compound yielded a CC50 in series [5] above 30000 nM.
Regarding `CC(C)OC(=O)c1ccc(NC(=O)c2cccc(C#Cc3ccccn3)c2)cc1` [Compound 65, Isopropyl 4-(3-(pyridin-2-ylethynyl)benzamido)benzoate], the figures for the EC50 in series [1], in series [2] and in series [3] were 0.16 µM, 0.46 µM and 0.29 µM, respectively. In addition, the “SARS-2 VU-VTR @ 20 μM (A549-hACE2) (logs)” value in series [4] is given as 2.78 logs. Also, the CC50 in series [5] was above 30000 nM.
For the compound `O=C(Nc1ccc(C(=O)OCC2CC2)cc1)c1cccc(C#Cc2ccccn2)c1` [Compound 66, Cyclopropylmethyl 4-(3-(pyridin-2-ylethynyl)benzamido)benzoate], the EC50 is 0.49 µM in series [1], 0.83 µM in series [2] and 0.46 µM in series [3]. Further, the “SARS-2 VU-VTR @ 20 μM (A549-hACE2) (logs)” value in series [4] is recorded as 1.73 logs. In series [5], this compound gave a CC50 above 30000 nM.
In the same order, the values of `CC(C)n1nccc1-c1ccc(NC(=O)c2cccc(C#Cc3ccccn3)c2)cc1` [Compound 69, N-(4-(1-isopropyl-1H-pyrazol-5-yl)phenyl)-3-(pyridin-2-ylethynyl)benzamide] are 0.24 µM, 0.45 µM, 0.22 µM, 3.3 logs and above 30000 nM.
In the same order, the values of `O=C(Nc1ccc(N2CCCCS2(=O)=O)cc1)c1cccc(C#Cc2ccccn2)c1` [Compound 70, N-(4-(1,1-dioxido-1,2-thiazinan-2-yl)phenyl)-3-(pyridin-2-ylethynyl)benzamide] are 1.29 µM, 1.08 µM, 0.82 µM, 2.47 logs and above 30000 nM.
With `CCOP(=O)(OCC)c1ccc(NC(=O)c2cccc(C#Cc3ccccn3)c2)cc1` [Compound 73, Diethyl (4-(3-(pyridin-2-ylethynyl)benzamido)phenyl)phosphonate], the 50% effective concentration (EC50) came out at 0.18 µM in series [1], 0.45 µM in series [2] and 0.003 µM in series [3]. The “SARS-2 VU-VTR @ 20 μM (A549-hACE2) (logs)” value in series [4] was 2.93 logs. Moreover, the CC50 in series [5] is above 30000 nM.
